Data taken from patent US20170181431A1, “HERBICIDAL COMPOSITIONS CONTAINING 4-AMINO-3-CHLORO-6-(4-CHLORO-2-FLUORO-3-METHOXYPHENYL) PYRIDINE-2-CARBOXYLIC ACID OR A DERIVATIVE THEREOF AND A CELL MEMBRANE DISRUPTOR HERBICIDE OR A DERIVATIVE THEREOF” (Dow AgroSciences LLC, priority 2015, published 2017).

System: Conyza species (fleabane, ERISS)
Assay: Field trial of post-emergence (foliar) herbicidal activity, percent weed control visually rated
Format: in vivo
Conditions: Cmpd 1 alone 5 g ae/ha, Table 2
Description: Treatments consisted of the methyl ester of 4-amino-3-chloro-6-(4-chloro-2-fluoro-3-methoxyphenyl)pyridine-2-carboxylic acid (Cmpd 1) tankmixed with saflufenacil or paraquat. The form of compound of formula (I) was applied on an acid equivalent basis, and saflufenacil and paraquat were applied on an active ingredient basis. Saflufenacil was applied as a commercial formulation containing 700 grams per kilogram (g/kg). Paraquat was applied as a commercial formulation containing 200 g/L.
Field trials were conducted under standard field conditions. Plot sizes varied from 2 meters (m) wide by 5 m long. Treatments were applied with small plot backpack sprayers, using pressurized carbon dioxide (CO2) as propellant. Pressure varied from 40-45 pounds per square inch (PSI), with spray tips typically of a Flat Fan type applying water diluent at 100 liters per hectare (L/ha). Boom size was 2 m in width. Weed sizes varied, but all treatments were applied as post-emergence treatments to weeds from 2 leaf to 2 tiller growth stages varying from 2-15 inches in height. No additional adjuvant was mixed with the treatments applied in the field.
Results in Tables 1 to 2 are field trial results for foliar applied compositions. The values reported are percent (%) control visually rated. The predicted percent (%) weed contol was determined using Colby's equation.
The following abbreviations are used in Tables 1 to 2: ERISS=Conyza species (fleabane, ERISS) g ae/ha=grams acid equivalent per hectare g ai/ha=grams active ingredient per hectare Mean % weed control=observed value of percent (%) control rated visually Predicted mean % weed control=expected value of percent (%) control as calculated by Colby's equation Cmpd 1=methyl 4-amino-3-chloro-6-(4-chloro-2-fluoro-3-methoxyphenyl)pyridine-2-carboxylate, halauxifen-methyl, or ARYLEX® DAA=days after application

## COC(=O)c1nc(-c2ccc(Cl)c(OC)c2F)cc(N)c1Cl [Cmpd 1, methyl 4-amino-3-chloro-6-(4-chloro-2-fluoro-3-methoxyphenyl)pyridine-2-carboxylate]
17DAA
  Cmpd 1 Mean % weed control: 33.75%
28DAA
  Cmpd 1 Mean % weed control: 33.75%
43DAA
  Cmpd 1 Mean % weed control: 40%
